{"source": "patent US7592336B2", "about": "“Hepatitis C virus inhibitors” (Bristol-Myers Squibb Company, priority 2005, dated 2009)", "key": {"[1]": {"system": "HCV replicon (Renilla luciferase) in HUH-7 cells", "assay": "HCV replicon luciferase reporter assay", "format": "cell-based, HCV strain 1b", "details": "Huh-7, 96 h, 4 days", "description": "As a secondary assay, EC50 determinations from the replicon FRET assay were confirmed in a replicon luciferase reporter assay. Utilization of a replicon luciferase reporter assay was first described by Krieger et al (Krieger N, Lohmann V, and Bartenschlager R, J. Virol. 75(10):4614-4624 (2001)). The replicon construct described for our FRET assay was modified by inserting cDNA encoding a humanized form of the Renilla luciferase gene and a linker sequence fused directly to the 3′-end of the luciferase gene. This insert was introduced into the replicon construct using an Asc1 restriction site located in core, directly upstream of the neomycin marker gene. The adaptive mutation at position 1179 (serine to isoleucine) was also introduced (Blight K J, Kolykhalov, A A, Rice, C M, Science 290(5498):1972-1974). A stable cell line constitutively expressing this HCV replicon construct was generated as described above. The luciferase reporter assay was set up as described for the HCV replicon FRET assay with the following modifications. Following 4 days in a 37° C./5% CO2 incubator, cells were analyzed for Renilla Luciferase activity using the Promega Dual-Glo Luciferase Assay System. […] Plates were read on a Packard TopCount NXT using a luminescence program.\nThe percentage inhibition was calculated using the formula below: […]\nThe values were graphed and analyzed using XLfit to obtain the EC50 value."}, "[2]": {"biological_target": "T1, HCV NS3/4A protease complex, H77 strain (Hepatitis C virus genotype 1a, UniProt P27958, C1454S/C1711G)", "T1 construct": "DNA encoding the recombinant HCV NS3/4A protease complex (amino acids 1027 to 1711) for these strains; inferred from pET21b vector and Ni-NTA purification; made in house; host or cells: Escherichia coli BL21 (DE3), pET21b", "T1 sequence (P27958 1027-1711 C1454S/C1711G, one chain of several)": "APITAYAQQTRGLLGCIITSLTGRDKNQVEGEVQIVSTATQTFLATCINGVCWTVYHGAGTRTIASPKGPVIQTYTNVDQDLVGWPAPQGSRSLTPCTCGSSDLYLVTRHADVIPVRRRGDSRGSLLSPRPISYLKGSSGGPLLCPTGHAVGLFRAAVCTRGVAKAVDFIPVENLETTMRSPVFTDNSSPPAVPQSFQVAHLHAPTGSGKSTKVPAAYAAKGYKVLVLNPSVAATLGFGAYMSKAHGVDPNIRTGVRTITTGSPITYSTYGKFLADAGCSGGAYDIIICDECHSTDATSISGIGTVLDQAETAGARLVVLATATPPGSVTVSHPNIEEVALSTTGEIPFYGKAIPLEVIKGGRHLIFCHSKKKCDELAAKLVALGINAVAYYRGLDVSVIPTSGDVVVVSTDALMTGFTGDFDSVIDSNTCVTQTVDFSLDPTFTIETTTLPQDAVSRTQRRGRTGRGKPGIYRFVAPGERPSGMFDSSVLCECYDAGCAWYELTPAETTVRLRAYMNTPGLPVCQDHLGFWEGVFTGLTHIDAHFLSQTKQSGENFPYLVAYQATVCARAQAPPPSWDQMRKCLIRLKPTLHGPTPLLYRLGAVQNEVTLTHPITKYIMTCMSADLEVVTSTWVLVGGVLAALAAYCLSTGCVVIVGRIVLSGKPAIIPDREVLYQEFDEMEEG", "assay": "FRET peptide assay to monitor HCV NS3/4A proteolytic activity (H77 strain)", "format": "biochemical, HCV genotype 1a", "details": "read-out: IC50 against NS3/4A H77 strain", "description": "HCV NS3 protease complexes, derived from the BMS strain, H77 strain or J4L6S strain, were generated, as described below. These purified recombinant proteins were generated for use in a homogeneous assay (see below) to provide an indication of how effective compounds of the present disclosure would be in inhibiting HCV NS3 proteolytic activity.\nThe H77 and J4L6S strains were used for production of recombinant NS3/4A protease complexes. DNA encoding the recombinant HCV NS3/4A protease complex (amino acids 1027 to 1711) for these strains were manipulated as described by P. Gallinari et al. (see Gallinari P, Paolini C, Brennan D, Nardi C, Steinkuhler C, De Francesco R. Biochemistry. 38(17):5620-32, (1999)). Briefly, a three-lysine solubilizing tail was added at the 3′-end of the NS4A coding region. The cysteine in the P1 position of the NS4A-NS4B cleavage site (amino acid 1711) was changed to a glycine to avoid the proteolytic cleavage of the lysine tag. Furthermore, a cysteine to serine mutation was introduced by PCR at amino acid position 1454 to prevent the autolytic cleavage in the NS3 helicase domain. […]"}}}
{"smiles": "C=C[C@@H]1C[C@]1(NC(=O)[C@@H]1C[C@@](O)(c2ccc(-c3ccccc3)cc2)CN1C(=O)[C@@H](NC(=O)OC(C)(C)C)C(C)(C)C)C(=O)NS(=O)(=O)C1CC1", "note": "[Compound 3]", "values": [{"measurement": "EC50", "setting": "[1]", "result": 14, "unit": "nM"}, {"measurement": "IC50", "setting": "[2]", "result": 1.6, "unit": "nM"}]}
